From paper PMC11198769, “Enhancement of transcription efficiency by TAR-Tat system increases the functional expression of human olfactory receptors” (PLOS ONE, 2024)
Where two headings read alike, the source gives them in different places.

Key:
Test in all cases: hOR assay (GloSensor cAMP luciferase), dose-response
Type in all cases: cell-based
OR4K5 = molecular target: T1, OR4K5 (Homo sapiens, UniProt Q8NGD3); conditions: OR4K5, with or without the TAR-Tat system
T1 construct: Lucy tag (N); FLAG (N); Rho tag (N); expressed in transfected cells; host or cells: Flp-In T-REx-293 cells stably expressing RTP1S, Gαolf and Ric8-b
T1 sequence (Q8NGD3 1-323): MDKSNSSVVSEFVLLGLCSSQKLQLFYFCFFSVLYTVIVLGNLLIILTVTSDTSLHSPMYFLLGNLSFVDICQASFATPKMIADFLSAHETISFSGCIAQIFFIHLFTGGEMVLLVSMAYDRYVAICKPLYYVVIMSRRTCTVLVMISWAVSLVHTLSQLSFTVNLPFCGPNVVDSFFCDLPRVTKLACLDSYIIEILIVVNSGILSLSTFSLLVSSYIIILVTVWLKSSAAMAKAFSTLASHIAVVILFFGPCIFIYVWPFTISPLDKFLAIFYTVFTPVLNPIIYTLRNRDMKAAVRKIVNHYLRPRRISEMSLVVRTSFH

OR56B1 = molecular target: T2, OR56B1 (Homo sapiens, UniProt Q8NGI3); conditions: OR56B1, with or without the TAR-Tat system
T2 construct: Lucy tag (N); expressed in transfected cells; host or cells: Flp-In T-REx-293 cells stably expressing RTP1S, Gαolf and Ric8-b
T2 sequence (Q8NGI3 1-324): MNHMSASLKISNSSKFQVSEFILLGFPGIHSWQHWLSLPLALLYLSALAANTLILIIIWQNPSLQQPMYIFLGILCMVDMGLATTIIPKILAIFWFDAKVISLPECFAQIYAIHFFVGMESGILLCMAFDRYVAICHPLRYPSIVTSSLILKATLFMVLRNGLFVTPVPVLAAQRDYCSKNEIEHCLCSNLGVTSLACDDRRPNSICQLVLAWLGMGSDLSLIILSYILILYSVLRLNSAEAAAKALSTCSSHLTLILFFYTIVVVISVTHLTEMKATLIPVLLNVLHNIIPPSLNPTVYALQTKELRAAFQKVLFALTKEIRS

OR5P3 = molecular target: T3, OR5P3 (Homo sapiens, UniProt Q8WZ94); conditions: for EC50: read-out: EC50 of n-hexanal concentration-response relationship
T3 construct: Lucy tag (N); FLAG (N); Rho tag (N); expressed in transfected cells; host or cells: Flp-In T-REx-293 cells stably expressing RTP1S, Gαolf and Ric8-b
T3 sequence (Q8WZ94 1-311): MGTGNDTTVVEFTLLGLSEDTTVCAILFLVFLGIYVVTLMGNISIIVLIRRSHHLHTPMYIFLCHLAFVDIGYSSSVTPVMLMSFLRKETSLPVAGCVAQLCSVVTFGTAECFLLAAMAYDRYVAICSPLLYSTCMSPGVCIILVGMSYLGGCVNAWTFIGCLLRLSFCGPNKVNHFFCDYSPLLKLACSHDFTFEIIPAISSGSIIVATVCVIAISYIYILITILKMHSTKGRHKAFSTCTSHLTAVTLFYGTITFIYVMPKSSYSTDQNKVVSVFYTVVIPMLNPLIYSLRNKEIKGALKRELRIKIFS

OR8B8 = molecular target: T4, OR8B8 (Homo sapiens, UniProt Q15620); conditions: OR8B8, with or without the TAR-Tat system
T4 construct: Lucy tag (N); FLAG (N); Rho tag (N); expressed in transfected cells; host or cells: Flp-In T-REx-293 cells stably expressing RTP1S, Gαolf and Ric8-b
T4 sequence (Q15620 1-311): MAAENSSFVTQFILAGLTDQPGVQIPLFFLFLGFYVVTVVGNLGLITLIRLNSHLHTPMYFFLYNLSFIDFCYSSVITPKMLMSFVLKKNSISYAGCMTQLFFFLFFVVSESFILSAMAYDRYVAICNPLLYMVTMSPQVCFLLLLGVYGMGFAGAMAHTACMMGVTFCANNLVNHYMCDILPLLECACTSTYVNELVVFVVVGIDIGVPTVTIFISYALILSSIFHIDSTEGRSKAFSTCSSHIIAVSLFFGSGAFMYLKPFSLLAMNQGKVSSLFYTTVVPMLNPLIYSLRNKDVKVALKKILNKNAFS

CCCCCC=O [n-hexanal]
concentration-dependent response to n-hexanal (OR4K5): no concentration-dependent response
concentration-dependent response to n-hexanal (OR56B1): no concentration-dependent response
concentration-dependent response to n-hexanal (OR5P3; OR5P3, with and without the TAR-Tat system): Concentration-dependent responses were observed
EC50 (OR5P3; OR5P3/pBApo (without TAR-Tat system)): 191 µM
EC50 (OR5P3; OR5P3/pHEK (with TAR-Tat system)): 672 µM
increase of maximum value of dose-response curve with the TAR-Tat system (OR5P3; OR5P3/pHEK versus OR5P3/pBApo): 4.1 fold
concentration-dependent response to n-hexanal (OR8B8): no concentration-dependent response
